Laboratory results reported in patent EP4671240A1, “SALT CONTAINING AROMATIC RING DERIVATIVE ANTAGONIST, PREPARATION METHOD THEREFOR, AND APPLICATION THEREOF” (Jiangsu Hansoh Pharmaceutical Group Co., Ltd., priority 2023, dated 2024).
Structures can show the parent of a compound that is named as a salt.

Assays:
[1] = Solid stability experiment of crystal forms of salts; format: physicochemical; settings: for XRPD: after treatment under light, high humidity, high temperature and 50°C/RH75%
Source text: To investigate the physical and chemical stability of crystal forms of the compound under high temperature, high humidity, high temperature and high humidity, and light conditions, thereby providing a basis for crystal form screening and storage.
4.1.3.1 Appropriate amounts of crystal form B of the hydrochloride salt, crystal form A of the methanesulfonic acid salt, crystal form A of the sulphuric acid salt, and crystal form A of the hydrobromic acid salt of the compound 4'-((2-butyl-4-oxo-1,3-diazaspiro[4.4]non-1-en-3-yl)methyl-d2)-N-(4-chloro-5-methylisoxazol-3-yl)-2'-(ethoxymethyl)-[1,1'-biphenyl]-2-sulfonamide were weighed and treated under light (5000±500lux), high humidity (25°C, 92.5%), high temperature (60°C), and 50°C±2°C/RH75%±5% for a certain period of time, and then their XRPD, purity and impurity content data were measured.
The maximum individual impurity increase for crystal form B of hydrochloride salt, crystal form A of methanesulfonic acid salt and crystal form A of sulphuric acid salt was determined by comparing Day 20 with Day 0, whereas for crystal form A of hydrobromic acid salt, it was determined by comparing Day 10 with Day 0.

[2] = Hygroscopicity experiment (dynamic vapor sorption); format: physicochemical
Source text: To investigate the hygroscopicity of crystal form B of the hydrochloride salt of the compound 4'-((2-butyl-4-oxo-1,3-diazaspiro[4.4]non-1-en-3-yl)methyl-d2)-N-(4-chloro-5-methylisoxazol-3-yl)-2'-(ethoxymethyl)-[1,1'-biphenyl]-2-sulfonamide under different relative humidity conditions, thereby providing a basis for compound crystal form screening and storage.
Crystal form B of the hydrochloride salt of the compound 4'-((2-butyl-4-oxo-1,3-diazaspiro[4.4]non-1-en-3-yl)methyl-d2)-N-(4-chloro-5-methylisoxazol-3-yl)-2'-(ethoxymethyl)-[1,1'-biphenyl]-2-sulfonamide was placed in saturated water vapor with different relative humidity to allow the compound and the water vapor to reach dynamic equilibrium, and the percentage of hygroscopic weight gain of the compound after equilibrium was calculated.

[3] = Liver microsomal metabolism stability assay (rat); format: in vitro ADME; settings: rat liver microsomes, 60 min, compound 1 µM
Description: (§1) The objective of this experiment was to detect the stability of the example compounds in liver microsomes of rats, dogs and humans.
(§2) Formulation of compound working solution: compound stock solution was added to phosphate buffer to a final concentration of 20 µM.
(§3) Dilution was performed with 100 mM phosphate buffer to a final concentration of 0.625 mg/mL.
(§4) NADPH (reduced nicotinamide adenine dinucleotide phosphate) and UDPGA (uridine diphosphate glucuronic acid) were weighed, and 100 mM phosphate buffer was added to a final concentration of 20 mM.
(§5) 1 mg of Alamethicin was weighed, and 200 µL of DMSO was added to formulate a 5 mg/mL solution. Then dilution was performed with phosphate buffer to a final concentration of 50 µg/mL.
(§6) Stop solution: cold acetonitrile containing 100 ng/mL labetalol hydrochloride and 400 ng/mL tolbutamide as internal standards.
(§7) 400 µL of formulated liver microsomes, 25 µL of compound working solution and 25 µL of Alamethicin were added in sequence to a 96-well plate, and the mixture was pre-incubated at 37°C for 10 min. Then 50 µL of formulated NADPH/UDPGA was added to start the reaction and the mixture was incubated at 37°C. The total volume of the reaction system was 500 µL. The final contents of each component are as follows:
(§8) • Instrument: Shimadzu LC-30 AD; • Chromatographic column: XBridge® C18 (50*4.6 mm, 5 µm particle size); • Mobile phase: A: 0.1% formic acid solution, B: methanol • Elution gradient: 0.2-1.6 min 5% A to 95% A, 3.0-3.1 min 95% A to 5% A • Run time: 4.0 min.
(§9) • Instrument: API5500 liquid chromatography-mass spectrometer, AB Sciex; • Ion source: electrospray ionization source (ESI); • Drying gas: N2, temperature 500°C; • Electrospray voltage: 5000 V; • Detection mode: positive ion detection; • Scan mode: Multiple Reaction Monitoring (MRM) mode.

[4] = Liver microsomal metabolism stability assay (dog); format: in vitro ADME; settings: dog liver microsomes, 60 min, compound 1 µM
Description: as §1, §2, §3, §4, §5, §6, §7, §8, §9

[5] = Liver microsomal metabolism stability assay (human); format: in vitro ADME; settings: human liver microsomes, 60 min, compound 1 µM
Description: as §1, §2, §3, §4, §5, §6, §7, §8, §9

[6] = 50°C&75%RH, Day 20 compared with Day 0
[7] = high humidity 25°C, 92.5% RH, Day 20 compared with Day 0
[8] = high temperature 60°C, Day 20 compared with Day 0
[9] = light 5000±500lux, Day 20 compared with Day 0

Compound	Maximum individual impurity increase [1, 6] [%]	XRPD [1]	Maximum individual impurity increase [1, 7] [%]	Maximum individual impurity increase [1, 8] [%]	Maximum individual impurity increase [1, 9] [%]	hygroscopic weight gain ([2]; RH80%, 25°C, DVS) [%]	XRPD pattern after moisture absorption and desorption ([2]; after 2 cycles under 0-95% relative humidity)	Rat Remaining rate [3] [%]	Dog Remaining rate [4] [%]	Human Remaining rate [5] [%]	Maximum individual impurity increase ([1]; 50°C&75%RH, Day 10 compared with Day 0) [%]	Maximum individual impurity increase ([1]; high humidity 25°C, 92.5% RH, Day 10 compared with Day 0) [%]	Maximum individual impurity increase ([1]; high temperature 60°C, Day 10 compared with Day 0) [%]
[2H]C([2H])(c1ccc(-c2ccccc2S(=O)(=O)Nc2noc(C)c2Cl)c(COCC)c1)N1C(=O)C2(CCCC2)N=C1CCCC [Crystal form B of hydrochloride salt, 4'-((2-butyl-4-oxo-1,3-diazaspiro[4.4]non-1-en-3-yl)methyl-d2)-N-(4-chloro-5-methylisoxazol-3-yl)-2'-(ethoxymethyl)-[1,1'-biphenyl]-2-sulfonamide]	<0.01	Crystal form unchanged	<0.01	0.02	0.04	0.378	no change						
[2H]C([2H])(c1ccc(-c2ccccc2S(=O)(=O)Nc2noc(C)c2Cl)c(COCC)c1)N1C(=O)C2(CCCC2)N=C1CCCC [Crystal form A of sulphuric acid salt, 4'-((2-butyl-4-oxo-1,3-diazaspiro[4.4]non-1-en-3-yl)methyl-d2)-N-(4-chloro-5-methylisoxazol-3-yl)-2'-(ethoxymethyl)-[1,1'-biphenyl]-2-sulfonamide]	0.14	Crystal form unchanged	0.05	0.11	0.06								
[2H]C([2H])(c1ccc(-c2ccccc2S(=O)(=O)Nc2noc(C)c2Cl)c(COCC)c1)N1C(=O)C2(CCCC2)N=C1CCCC [Crystal form A of methanesulfonic acid salt] [4'-((2-butyl-4-oxo-1,3-diazaspiro[4.4]non-1-en-3-yl)methyl-d2)-N-(4-chloro-5-methylisoxazol-3-yl)-2'-(ethoxymethyl)-[1,1'-biphenyl]-2-sulfonamide]	0.08	Crystal form unchanged	<0.01	0.05	0.09								
[2H]C([2H])(OCC)c1cc(CN2C(=O)C3(CCCC3)N=C2CCCC)ccc1-c1ccccc1S(=O)(=O)Nc1noc(C)c1Cl [Example 4, 4'-((2-Butyl-4-oxo-1,3-diazospiro[4.4]non-1-en-3-yl)methyl)-N-(4-chloro-5-methylisoxazol-3-yl)-2'-(ethoxydeuteromethyl)-[1,1'-biphenyl]-2-sulfonamide]								17.1	23.9	30.7			
[2H]C([2H])(c1ccc(-c2ccccc2S(=O)(=O)Nc2noc(C)c2Cl)c(COCC)c1)N1C(=O)C2(CCCC2)N=C1CCCC [Crystal form A of hydrobromic acid salt, 4'-((2-butyl-4-oxo-1,3-diazaspiro[4.4]non-1-en-3-yl)methyl-d2)-N-(4-chloro-5-methylisoxazol-3-yl)-2'-(ethoxymethyl)-[1,1'-biphenyl]-2-sulfonamide]		Crystal form unchanged									0.02	0.02	0.05
